Reference: US4217366A, “Pharmaceutically active 2-(4-aminobutoxy)stilbenes” (Mitsubishi Chemical Industries, Ltd., priority 1978, dated 1980)

Columns and labels:
Mice = assay: LD50 in mice, method of Litchfield-Wilcoxon; format: in vivo; settings: mice, po
Method: (§1) Animals used were ddy strain male mice (20-22 g) and Wistar strain male rats (150-170 g).
(§2) LD50 was calculated by the method of Litchfield-Wilcoxon (J. T. Litchfield and F. Wilcoxon, J. Pharmacol. exp. Therap., 96 99 (1949)).

grand-mal seizure = settings: well known antiepileptic agent; cited from earlier work
Rat = settings: po, from "Iyakuhin Kenkyuho" (page 258), Asakura Shoten (1968); cited from earlier work
[1] = test system: pentylenetetrazol (PTZ) convulsion; assay: Anti-PTZ action: protection against tonic extensor (TE) induced by intraperitoneal pentylenetetrazol (100 mg/kg i.p.); format: in vivo, ddy strain male mice; settings: for ED50 / inhibition at 50 mg/kg: Mus musculus; for inhibition at 50 mg/kg: at 50 mg/kg po (given as <50*)
Method: (§3) Animals used were ddy strain male mice (20-22 g) and Wistar strain male rats (150-170 g). Anticonvulsant actions were determined by the ability of the compounds to prevent pentylenetetrazol (PTZ) convulsion and maximal electroshock seizure (MES), using 8 mice per group. Anti-PTZ action was judged by the protection against tonic extensor (TE) induced by intraperitoneal injection of PTZ (100 mg/kg i.p.) (K. Nakamura et al., Arch. int. Pharmacodyn., 156 261 (1965)). The results were expressed as 50% effective dose (ED50, mg/kg po) or an inhibition percentage at certain doses used.

[2] = test system: maximal electroshock seizure (MES); assay: Anti-MES action: protection against tonic extensor (TE) induced by electroshock via a pair of ear electrodes; format: in vivo, ddy strain male mice
Method: as §3, with “Anti-MES” for “Anti-PTZ”, “was also” for “was”, “TE” for “tonic extensor (TE)”, “electroshock via a pair” for “intraperitoneal injection”, “ear electrodes ([…]” for “PTZ (100 mg/kg i.p.) (K. Nakamura et”, “J. Pharmacol. exp. Therap., 127 55 (1959)).” for “Arch. int. Pharmacodyn., 156 261 (1965)).”

[3] = LD50 in rats, method of Litchfield-Wilcoxon
Method: as §1, §2

[4] = LD50 in mice, method of Litchfield-Wilcoxon; format: in vivo; settings: mouse, in vivo, po
Method: as §1, §2

[5] = test system: maximal electroshock seizure (MES) and pentylenetetrazol (PTZ) convulsion; assay: antiepileptic efficacy (anti-MES and anti-PTZ) compared with trimethadione and methotoin; format: in vivo, ddy strain male mice; settings: from Table 2
Method: as §3, with “(1965)). Anti-MES action was also judged by the protection against TE induced by electroshock via a pair of ear electrodes ([…] al., J. Pharmacol. exp. Therap., 127 55 (1959)).” for “(1965)).”

[6] = in vivo
Method: as §2

peti-mal seizure = settings: well known antiepileptic agent; cited from earlier work
[7] = 50% effective dose, po, PTZ 100 mg/kg i.p., 8 mice per group
[8] = Mus musculus, 50% effective dose, po, 8 mice per group

Structure (SMILES) | LD50 ([4]; mice) [mg/kg] | antiepileptic efficacy [5] | ED50 [1, 7] [mg/kg] | ED50 [2, 8] [mg/kg] | inhibition at 50 mg/kg [1] [%] | other results
CCC1(c2ccccc2)NC(=O)N(C)C1=O (stereo not drawn) [Methotoin, reference compound] |  |  |  |  |  | LD50 Mice (Mice): 475 mg/kg PO; effectiveness against grand-mal seizure (grand-mal seizure): effective against grand-mal seizure; LD50 Rat (literature) (Rat): 2,500 mg/kg PO; ED50 Anti-PTZ [1, 7]: 51.9 mg/kg PO; ED50 Anti-MES ([2]; 50% effective dose, po, 8 mice per group): 91.3 mg/kg PO
CN(C)CCCCOc1ccccc1C=Cc1ccccc1.Cl [Example 1, 2-(4-dimethylaminobutoxy)stilbene hydrochloride] | 1300 | much greater than that of trimethadione and methotoin | 17.8 | 38 |  | LD50 ([3]; in vivo; rat, po): 2000 mg/kg; level of toxicity [6]: low level of toxicity
OC1CCCN(CCCCOc2ccccc2C=Cc2ccccc2)C1 (stereo not drawn) [compound 6] | 415 | much greater than that of trimethadione and methotoin | 14 | 20 |  | 
CN1CCN(CCCCOc2ccccc2C=Cc2ccccc2)CC1 [compound 3] |  | much greater than that of trimethadione and methotoin | 21.1 | 35.5 |  | LD50 ([3]; rat, in vivo, po): 2300 mg/kg; LD50 [4]: 1050 mg/kg; level of toxicity [6]: low level of toxicity
CNCCCCOc1ccccc1C=Cc1ccccc1 [compound 2] | 839 |  | 22.5 | 60 |  | 
C(=Cc1ccccc1OCCCCN1CCCCC1)c1ccccc1 [compound 5] | 621 |  | < 50 | 60 | 100 | 
CN1C(=O)OC(C)(C)C1=O [Trimethadione, reference compound] | 2200 |  | 230 | 1180 |  | effectiveness against peti-mal seizure (peti-mal seizure): effective against peti-mal seizure
OCCN1CCN(CCCCOc2ccccc2C=Cc2ccccc2)CC1 [compound 4] | 1050 |  | 16.3 | 76.1 |  | 
C(=Cc1ccccc1OCCCCN1CCCC1)c1ccccc1 [compound 7] | 600 |  | < 50 | 65 | 87.5 | 
CCCN1CCN(CCCCOc2ccccc2C=Cc2ccccc2)CC1 [compound 8] |  |  | < 50 |  | 85 | inhibition at 50 mg/kg ([2]; Mus musculus, at 50 mg/kg po): 40%
